{"source": "patent US20040058957A1", "about": "“Benzothiophene derivatives and herbicidal compositions containing the same” (priority 2000, published 2004)", "format_in_all_cases": "in vivo", "conditions_in_all_cases": "rated 30 days after application", "key": {"Scirpus juncoides [1]": {"system": "Scirpus juncoides", "test": "Submersion test, treatment 10 days after transplantation: herbicidal effect", "method": "(§1) A mixture consisting of 57 parts by weight of talc and 40 parts by weight of bentonite as carrier and 3 parts by weight of sodium alkylbenzenesulfonate as surfactant was pulverized and mixed uniformly to obtain a carrier for wettable powder. Each herbicidal composition was prepared by uniformly pulverizing and mixing 90 parts by weight of the carrier for wettable powder and 10 parts by weight of the benzothiophene derivative produced in each example.\n(§2) Seeds of Scirpus juncoides were sowed onto paddy field soil in a Wagner pot of 1/2000 are. Then, rice seedlings of 2.5 leaf stage were transplanted in the soil. Water was pored into the pot so as to submerge the soil at a depth of 3 cm. The pot was placed in a greenhouse maintained at 20 to 25° C. for vegetation. After 10 days from transplantation of the rice seedlings, a predetermined amount of the herbicidal composition prepared in the step [1] was applied to the pot. After 30 days from the application of the herbicidal composition, the herbicidal effect and injury to the paddy rice were determined.\n(§3) The herbicidal effect and the injury to crops in the above tests (1) and (2) were evaluated based on the following ratings.\n(§4) The degree of weed control (%) was calculated from the weights of the above-ground parts of fresh weeds in the treated area and the untreated area using the following equation:\n(§5) Degree of weed control (%)=[1−(weight of weeds in treated area)/(weight of weeds in untreated area)]×100\n(§6) The herbicidal effect was determined according to the following ratings: […]"}, "Scirpus juncoides [2]": {"system": "Scirpus juncoides", "test": "Submersion test, treatment 3 days after transplantation: herbicidal effect", "method": "as §1\nas §2, with “3” for “10”\nas §3, §4, §5, §6"}, "paddy rice": {"system": "paddy rice", "test": "Submersion test, treatment 3 days after transplantation: injury to paddy rice", "set-up": "key: 0: No injury; 1: Substantially no injury; 2: Slight injury; 3: Some injury; 4: Remarkable injury; 5: Almost all crops dead", "method": "A mixture consisting of 57 parts by weight of talc and 40 parts by weight of bentonite as carrier and 3 parts by weight of sodium alkylbenzenesulfonate as surfactant was pulverized and mixed uniformly to obtain a carrier for wettable powder. […] Then, rice seedlings of 2.5 leaf stage were transplanted in the soil. Water was pored into the pot so as to submerge the soil at a depth of 3 cm. The pot was placed in a greenhouse maintained at 20 to 25° C. for vegetation. […] After 30 days from the application of the herbicidal composition, the herbicidal effect and injury to the paddy rice were determined. […] The injury to crops was evaluated according to the following ratings: [table]"}}, "data": [{"smiles": "CO/N=C/CSC1Cc2c(ccc(C(=O)C3C(=O)CCCC3=O)c2Cl)S1(=O)=O", "note": "(single isomer, unassigned) [Compound No. 8, 4-chloro-2-(2-methoxyiminoethyl)thio-5-(1,3-dioxocyclohex-2-yl)carbonyl-2,3-dihydrobenzothiophene 1,1-dioxide]", "values": [{"measurement": "Herbicidal effect Scirpus juncoides", "setting": "Scirpus juncoides [1]; application rate 100 g/ha", "value": "5 (90% or higher (almost completely dead))"}, {"measurement": "Herbicidal effect Scirpus juncoides", "setting": "Scirpus juncoides [1]; application rate 200 g/ha", "value": "5 (90% or higher (almost completely dead))"}, {"measurement": "Herbicidal effect Scirpus juncoides", "setting": "Scirpus juncoides [2]; application rate 100 g/ha", "value": "4 (70% or higher but less than 90%)"}, {"measurement": "Herbicidal effect Scirpus juncoides", "setting": "Scirpus juncoides [2]; application rate 200 g/ha", "value": "5 (90% or higher (almost completely dead))"}, {"measurement": "Injury paddy rice", "setting": "paddy rice; application rate 100 g/ha", "value": 0}, {"measurement": "Injury paddy rice", "setting": "paddy rice; application rate 200 g/ha", "value": 0}]}, {"smiles": "C[S+]([O-])C1Cc2c(ccc(C(=O)C3=C(Cl)CCCC3=O)c2Cl)S1(=O)=O", "note": "(single isomer, unassigned) [Compound No. 28, 4-chloro-2-methanesulfinyl-5-(3-chloro-1-oxo-2-cyclohexen-2-yl)carbonyl-2,3-dihydrobenzothiophene 1,1-dioxide]", "values": [{"measurement": "Herbicidal effect Scirpus juncoides", "setting": "Scirpus juncoides [1]; application rate 100 g/ha", "value": "5 (90% or higher (almost completely dead))"}, {"measurement": "Herbicidal effect Scirpus juncoides", "setting": "Scirpus juncoides [1]; application rate 200 g/ha", "value": "5 (90% or higher (almost completely dead))"}, {"measurement": "Herbicidal effect Scirpus juncoides", "setting": "Scirpus juncoides [2]; application rate 100 g/ha", "value": "5 (90% or higher (almost completely dead))"}, {"measurement": "Herbicidal effect Scirpus juncoides", "setting": "Scirpus juncoides [2]; application rate 200 g/ha", "value": "5 (90% or higher (almost completely dead))"}, {"measurement": "Injury paddy rice", "setting": "paddy rice; application rate 100 g/ha", "value": 0}, {"measurement": "Injury paddy rice", "setting": "paddy rice; application rate 200 g/ha", "value": 0}]}, {"smiles": "CS(=O)(=O)c1ccc(C(=O)C2=C(Sc3ccccc3)C3CCC(C3)C2=O)c(Cl)c1", "note": "(stereo not drawn) [(B), reference compound]", "values": [{"measurement": "Herbicidal effect Scirpus juncoides", "setting": "Scirpus juncoides [1]; application rate 100 g/ha", "value": "2 (20% or higher but less than 40%)"}, {"measurement": "Herbicidal effect Scirpus juncoides", "setting": "Scirpus juncoides [1]; application rate 200 g/ha", "value": "3 (40% or higher but less than 70%)"}, {"measurement": "Herbicidal effect Scirpus juncoides", "setting": "Scirpus juncoides [2]; application rate 100 g/ha", "value": "3 (40% or higher but less than 70%)"}, {"measurement": "Herbicidal effect Scirpus juncoides", "setting": "Scirpus juncoides [2]; application rate 200 g/ha", "value": "4 (70% or higher but less than 90%)"}, {"measurement": "Injury paddy rice", "setting": "paddy rice; application rate 100 g/ha", "value": 0}, {"measurement": "Injury paddy rice", "setting": "paddy rice; application rate 200 g/ha", "value": 0}]}, {"smiles": "CCSC1Cc2c(ccc(C(=O)C3C(=O)CCCC3=O)c2Cl)S1(=O)=O", "note": "(stereo not drawn) [Compound No. 2, 4-chloro-2-ethylthio-5-(1,3-cdioxocyclohex-2-yl)carbonyl-2,3-cdihydrobenzothiophene 1,1-dioxide]", "values": [{"measurement": "Herbicidal effect Scirpus juncoides", "setting": "Scirpus juncoides [1]; application rate 100 g/ha", "value": "5 (90% or higher (almost completely dead))"}, {"measurement": "Herbicidal effect Scirpus juncoides", "setting": "Scirpus juncoides [1]; application rate 200 g/ha", "value": "5 (90% or higher (almost completely dead))"}, {"measurement": "Herbicidal effect Scirpus juncoides", "setting": "Scirpus juncoides [2]; application rate 100 g/ha", "value": "5 (90% or higher (almost completely dead))"}, {"measurement": "Herbicidal effect Scirpus juncoides", "setting": "Scirpus juncoides [2]; application rate 200 g/ha", "value": "5 (90% or higher (almost completely dead))"}, {"measurement": "Injury paddy rice", "setting": "paddy rice; application rate 100 g/ha", "value": 0}, {"measurement": "Injury paddy rice", "setting": "paddy rice; application rate 200 g/ha", "value": 0}]}, {"smiles": "COCCSC1Cc2c(ccc(C(=O)C3C(=O)CCCC3=O)c2Cl)S1(=O)=O", "note": "(stereo not drawn) [Compound No. 5, 4-chloro-2-(2-methoxyethyl)thio-5-(1,3-dioxocyclohex-2-yl)carbonyl-2,3-dihydrobenzothiophene 1,1-dioxide]", "values": [{"measurement": "Herbicidal effect Scirpus juncoides", "setting": "Scirpus juncoides [1]; application rate 100 g/ha", "value": "5 (90% or higher (almost completely dead))"}, {"measurement": "Herbicidal effect Scirpus juncoides", "setting": "Scirpus juncoides [1]; application rate 200 g/ha", "value": "5 (90% or higher (almost completely dead))"}, {"measurement": "Herbicidal effect Scirpus juncoides", "setting": "Scirpus juncoides [2]; application rate 100 g/ha", "value": "5 (90% or higher (almost completely dead))"}, {"measurement": "Herbicidal effect Scirpus juncoides", "setting": "Scirpus juncoides [2]; application rate 200 g/ha", "value": "5 (90% or higher (almost completely dead))"}, {"measurement": "Injury paddy rice", "setting": "paddy rice; application rate 100 g/ha", "value": 0}, {"measurement": "Injury paddy rice", "setting": "paddy rice; application rate 200 g/ha", "value": 0}]}, {"smiles": "CS(=O)(=O)C1Cc2c(ccc(C(=O)C3C(=O)CCCC3=O)c2Cl)S1(=O)=O", "note": "(stereo not drawn) [Compound No. 15, 4-chloro-2-methanesulfonyl-5-(1,3-dioxocyclohex-2-yl)carbonyl-2,3-dihydrobenzothiophene 1,1-dioxide]", "values": [{"measurement": "Herbicidal effect Scirpus juncoides", "setting": "Scirpus juncoides [1]; application rate 100 g/ha", "value": "4 (70% or higher but less than 90%)"}, {"measurement": "Herbicidal effect Scirpus juncoides", "setting": "Scirpus juncoides [1]; application rate 200 g/ha", "value": "5 (90% or higher (almost completely dead))"}, {"measurement": "Herbicidal effect Scirpus juncoides", "setting": "Scirpus juncoides [2]; application rate 100 g/ha", "value": "5 (90% or higher (almost completely dead))"}, {"measurement": "Herbicidal effect Scirpus juncoides", "setting": "Scirpus juncoides [2]; application rate 200 g/ha", "value": "5 (90% or higher (almost completely dead))"}, {"measurement": "Injury paddy rice", "setting": "paddy rice; application rate 100 g/ha", "value": 0}, {"measurement": "Injury paddy rice", "setting": "paddy rice; application rate 200 g/ha", "value": 0}]}]}
